The values that follow come from ChEMBL document CHEMBL6114971, “Design, synthesis and biological evaluation of benzo[b]thiophene analogues as novel ferroptosis inhibitor that inhibit fibrosarcoma cell proliferation” (Bioorg Med Chem, 2025).

By pIC50 is commonly meant the IC50 on a negative log10 scale, so that one unit is a factor of ten. For orientation: IC50 means the concentration at which inhibition is half-maximal.

pIC50: −log10 of the molar value. Active and inactive are the calls of the source. The calls are words filed in the database; no cut-off is given here.

Data set [1] deals with A549. The data set can be described thus: Antiproliferative activity against human A549 cells measured after 72 hrs by MTT assay. It is filed as functional, cell-based. As to conditions: A549, 72 h. (Tetrazolium dyes change colour on reduction, which living cells bring about.)
In data set [2] the test system is 4T1. The data set can be described thus: Antiproliferative activity against mouse 4T1 cells measured after 72 hrs by MTT assay. It is filed as functional, cell-based. To be noted: 4T1, 72 h.
Data set [3] relates to HT-1080. Nature of the data set: Antiproliferative activity against human HT-1080 cells measured after 72 hrs by MTT assay. It is filed as functional, cell-based. To be noted: HT-1080, 72 h.
The subject of data set [4] is MGC-803. The data set can be described thus: Antiproliferative activity against human MGC-803 cells measured after 72 hrs by MTT assay. As to conditions: MGC-803, 72 h. It is filed as functional, cell-based.
In data set [5] the test system is HT-1080. The data set can be described thus: Antiproliferative activity against human HT-1080 cells measured after 72 hrs in presence of ferroptosis inhibitor Fer-1 by MTT assay. The format is functional, cell-based. To be noted: HT-1080, 72 h.
Data set [6] can be described thus: Selectivity ratio of IC50 for antiproliferative activity against human HT-1080 cells in presence of ferroptosis inhibitor Fer-1 to IC50 for antiproliferative activity against human HT-1080 cells. The format is functional.
The nature of data set [7]: Cytotoxicity against human GES1 cells measured after 72 hrs by MTT assay. It is filed as toxicity, cell-based.
Data set [8] is described as follows: Cytotoxicity against HUVEC measured after 72 hrs by MTT assay. It is filed as toxicity, cell-based. To be noted: human.
The nature of data set [9]: Selectivity index, ratio of IC50 for human GES1 cells to IC50 for human HT-1080. The format is toxicity. To be noted: GES1 cells versus HT-1080 cells, read-out: Ratio IC50.
The nature of data set [10]: Selectivity index, ratio of IC50 for HUVEC to IC50 for human HT-1080. It is filed as toxicity. As to conditions: HUVEC versus HT-1080 cells, read-out: Ratio IC50.
In data set [11] the target is T1, Phospholipid hydroperoxide glutathione peroxidase GPX4 (Homo sapiens) (UniProt P36969).
T1 sequence (whole entry): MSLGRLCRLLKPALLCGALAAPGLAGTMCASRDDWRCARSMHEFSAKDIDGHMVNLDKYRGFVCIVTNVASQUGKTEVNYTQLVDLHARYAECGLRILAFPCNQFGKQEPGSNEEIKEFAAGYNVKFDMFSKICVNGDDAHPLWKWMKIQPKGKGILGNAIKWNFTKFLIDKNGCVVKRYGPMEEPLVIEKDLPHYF
Nature of the data set: Inhibition of GPX4 activity in human HT-1080 cells assessed as down regulation of GPX4 level at 2 uM measured after 24 hrs by Western blotting analysis. It is filed as cell-based. (In general: A western blot detects proteins with antibodies after separation by electrophoresis.)

Data set [12] deals with HT-1080. The data set can be described thus: Reduction in GPX4 mRNA level in human HT-1080 cells at 2 uM measured after 24 hrs by qRT-PCR analysis. It is filed as functional, cell-based. (Quantitative PCR measures a nucleic acid by following its amplification.)

In the case of `COc1cc(N(Cc2ccoc2)C(=O)c2noc(C)c2[N+](=O)[O-])cc(OC)c1OC`, the negative-log IC50 (pIC50) in data set [1], in [2], in data set [3] and in data set [4] was below 4.70 in each case.
For `COc1ccc(N(Cc2c[nH]c3ccccc23)C(=O)CCl)cc1OC`, the pIC50 in data set [1] is 4.78; in data set [2], below 4.70; in data set [3] it was 4.83; in data set [4], 5.14.
As for `O=C(CCl)N(Cc1ccoc1)c1ccccc1`, the pIC50 in data set [1] is below 4.70; in [2], 4.85; in data set [3], 4.85; in data set [4], below 4.70.
In the case of `COc1ccc(N(Cc2csc3ccccc23)C(=O)c2noc(C)c2[N+](=O)[O-])cc1OC`, the negative logarithm of the IC50 (pIC50) in data set [1] was below 4.70; in [2] it was 5.46; in data set [3], 5.28; in [4], below 4.70; in data set [5], 4.81. In addition, the “Ratio IC50” value in [6] was found to be 2.98. Further, the values for the IC50 at 72 h in data set [7] and in data set [8] were 87.3 µM and 31.8 µM, respectively. The selectivity ratio in data set [9] turned out to be 16.6; in data set [10] it was 6.06. The inhibition entry in [11] is “Active; Significant Down Regulation Observed”.
In the case of `COc1ccc(N(Cc2csc3ccccc23)C(=O)CCl)cc1`, the pIC50 in data set [1] was below 4.70; in data set [2] it was below 4.70; in data set [3], 4.85; in data set [4], 4.77.
Consider `COc1cc(N(Cc2ccsc2)C(=O)CCl)cc(OC)c1OC`, for which the pIC50 was below 4.70 in data set [1]; 4.95 in data set [2]; 5.44 in data set [3]; 4.85 in data set [4]; 5.20 in data set [5]. Besides, in data set [6], the “Ratio IC50” value was 1.74. Besides, the IC50 at 72 h in [7] is 62.3 µM; in data set [8], 15.4 µM. For the same molecule, the selectivity ratio in [9] worked out at 17.3; in data set [10], 4.27. Also, the inhibition entry in [11] is reported as “Active; Significant Down Regulation Observed”.
As to `COc1cc(N(Cc2ccc3ccccc3n2)C(=O)c2noc(C)c2[N+](=O)[O-])cc(OC)c1OC`, the pIC50 in [1] is 4.72; in data set [2], 4.89; in data set [3], below 4.70; in data set [4] it was below 4.70.
As for `O=C(CCl)N(Cc1cc2ccccc2s1)c1ccccc1`, the pIC50 in data set [1] is 4.81; in data set [2] it was below 4.70; in [3], 4.74; in data set [4], 5.17.
In the case of `O=C(CCl)N(Cc1c[nH]c2ccccc12)c1ccccc1`, the pIC50 is below 4.70 in data set [1], below 4.70 in data set [2], 5.10 in data set [3] and 4.88 in [4].
Regarding `O=C(CCl)N(Cc1cc2ccccc2s1)c1cccc(C(F)(F)F)c1`, the pIC50 was below 4.70 in data set [1], 4.75 in data set [2], 4.87 in [3] and 4.92 in data set [4].
For the molecule `COc1cc(N(Cc2csc3ccccc23)C(=O)c2noc(C)c2[N+](=O)[O-])cc(OC)c1OC`, the pIC50 in [1] was below 4.70; in data set [2] it was 4.99; in data set [3], below 4.70; in data set [4], below 4.70.
On to `COc1ccc(N(Cc2cc3ccccc3s2)C(=O)CCl)cc1OC`, for which the pIC50 in [1] is 4.77; in data set [2] it was below 4.70; in data set [3], 5.05; in [4], 5.74.
Consider `COc1ccc(N(Cc2c[nH]c3ccccc23)C(=O)CCl)cc1`, for which the pIC50 in [1] was below 4.70; in [2] it was 4.80; in [3], 4.91; in data set [4] it was 4.93.
In the case of `COc1ccc(N(Cc2csc3ccccc23)C(=O)CCl)cc1OC`, the pIC50 in data set [1] is 4.82; in [2] it was below 4.70; in data set [3], 5.37; in data set [4], 5.62.
`O=C(CCl)N(Cc1cc2ccccc2[nH]1)c1ccccc1`: the negative logarithm of the IC50 (pIC50) in data set [1] is below 4.70; in data set [2], below 4.70; in data set [3] it was 4.82; in data set [4] it was 4.86.
Regarding `COc1ccc(N(Cc2cc3ccccc3s2)C(=O)CCl)cc1`, the pIC50 in data set [1] is 4.74; in data set [2], below 4.70; in data set [3] it was below 4.70; in [4] it was 5.00. Besides, the inhibition result in data set [11] is “inactive”.
For `COc1cc(N(Cc2cc3ccccc3s2)C(=O)CCl)cc(OC)c1OC`, the pIC50 is below 4.70 in [1]; below 4.70 in data set [2]; 5.44 in data set [3]; 5.68 in data set [4]; 5.38 in data set [5]. For the same molecule, in data set [6], the “Ratio IC50” value came out at 1.15. The IC50 at 72 h in data set [7] came to 68.8 µM; in data set [8], 10.5 µM. The selectivity ratio in data set [9] is 18.4; in data set [10], 2.8. For the same molecule, the inhibition entry in [11] is listed as “Active; Significant Down Regulation Observed”.
With `COc1cc(N(Cc2ccsc2)C(=O)c2noc(C)c2[N+](=O)[O-])cc(OC)c1OC`, the pIC50 is below 4.70 in data set [1], 4.84 in data set [2], below 4.70 in [3] and below 4.70 in data set [4].
Take `O=C(CCl)N(Cc1csc2ccccc12)c1ccc(F)cc1`: the pIC50 in data set [1] was below 4.70; in [2], below 4.70; in data set [3], 4.91; in [4], 4.87.
Turning to `COc1cc(N(Cc2ccoc2)C(=O)CCl)cc(OC)c1OC`, the pIC50 in [1] is below 4.70; in [2], 5.22; in [3] it was 5.38; in [4], below 4.70.
With `COc1ccc(N(Cc2csc3ccccc23)C(=O)CCl)cc1Cl`, the pIC50 in data set [1] is below 4.70; in data set [2], 5.11; in [3], 5.40; in data set [4] it was below 4.70.
In the case of `Cc1onc(C(=O)N(Cc2csc3ccccc23)c2ccccc2)c1[N+](=O)[O-]`, the pIC50 in [1], in data set [2], in [3] and in data set [4] was below 4.70 throughout.
Regarding `O=C(CCl)N(Cc1csc2ccccc12)c1cccc(C(F)(F)F)c1`, the pIC50 in data set [1] was 4.71; in [2], below 4.70; in data set [3], 4.95; in [4] it was 5.10.
In the case of `O=C(CCl)N(Cc1ccoc1)c1ccc(F)cc1`, the pIC50 is below 4.70 in [1], 4.92 in [2], 5.22 in data set [3] and 4.78 in data set [4].
`O=C(CCl)N(Cc1ccsc1)c1ccc(F)cc1`: the negative-log IC50 (pIC50) was below 4.70 in data set [1], below 4.70 in data set [2], 5.28 in data set [3] and 4.82 in [4].
On to `CCOc1ccccc1-n1c(C(C)N2CCN(C(=O)COc3ccc(Cl)cc3)CC2)nc2ccccc2c1=O` (stereo not given) [ERASTIN], for which the pIC50 in data set [1] is below 4.70; in [2], 4.89; in data set [3] it was 5.45; in data set [4], below 4.70.
Turning to `O=C(CCl)N(Cc1c[nH]c2ccccc12)c1ccc(F)cc1`, the pIC50 is 4.79 in [1], below 4.70 in data set [2], 5.14 in data set [3] and 5.04 in data set [4].
Regarding `O=C(CCl)N(Cc1cc2ccccc2s1)c1ccc(F)cc1`, the pIC50 was below 4.70 in data set [1], below 4.70 in [2], 4.98 in data set [3] and 5.15 in data set [4].
In the case of `Cc1onc(C(=O)N(Cc2csc3ccccc23)c2ccc(F)cc2)c1[N+](=O)[O-]`, the pIC50 in [1] is below 4.70; in data set [2] it was 4.99; in [3], below 4.70; in [4], below 4.70.
With `COc1cc(N(C)Cc2csc3ccccc23)cc(OC)c1OC`, the outcome in data set [12] was inactive.
For the molecule `CCCCN(Cc1cc2ccccc2s1)C(=O)CCl`, the pIC50 in data set [1] was below 4.70; in data set [2], 5.27; in [3] it was 5.43; in [4], below 4.70; in [5] it was 5.22. The “Ratio IC50” value in data set [6] is given as 1.5. In addition, the IC50 at 72 h worked out at 123 µM in [7] and 8.58 µM in data set [8]. Further, the selectivity ratio in data set [9] is 30.9; in [10], 2.15. The inhibition result in [11] is recorded as “Active; Significant Down Regulation Observed”.
Take `O=C(CCl)N(Cc1csc2ccccc12)c1ccccc1`: the negative-log IC50 (pIC50) in [1] is below 4.70; in data set [2] it was below 4.70; in [3] it was 4.95; in [4], 4.99.
For `O=C(CCl)N(Cc1ccsc1)c1ccccc1`, the pIC50 was below 4.70 in data set [1], 5.13 in data set [2], 5.33 in data set [3] and 4.70 in [4].
Take `O=C(CCl)N(Cc1cc2ccccc2[nH]1)c1ccc(F)cc1`: the pIC50 in data set [1] is below 4.70; in data set [2] it was 4.91; in data set [3], 5.03; in data set [4] it was 5.14.
The matching figures for `COc1ccc(N(Cc2cc3ccccc3[nH]2)C(=O)CCl)cc1`: below 4.70, 4.73, 4.93 and below 4.70.
The matching figures for `O=C(CCl)N(Cc1ccccc1)Cc1csc2ccccc12`: below 4.70, 5.07, below 4.70 and below 4.70.
